From patent publication US20210238192A1, “VASCULAR ADHESION PROTEIN-1 (VAP-1) MODULATORS AND THERAPEUTIC USES THEREOF” (Blade Therapeutics, Inc., priority 2018, published 2021)
pIC50: −log10 of the molar value. Structures can show the parent of a compound that is named as a salt. Where two headings read alike, the source gives them in different places.

Legend:
Type in all cases: biochemical
Human VAP-1 = biological target: T1, Human VAP-1 (Homo sapiens, UniProt Q16853); assay: VAP-1 inhibition assay (Amplex Red continuous fluorescence assay)
T1 sequence (Q16853 1-763): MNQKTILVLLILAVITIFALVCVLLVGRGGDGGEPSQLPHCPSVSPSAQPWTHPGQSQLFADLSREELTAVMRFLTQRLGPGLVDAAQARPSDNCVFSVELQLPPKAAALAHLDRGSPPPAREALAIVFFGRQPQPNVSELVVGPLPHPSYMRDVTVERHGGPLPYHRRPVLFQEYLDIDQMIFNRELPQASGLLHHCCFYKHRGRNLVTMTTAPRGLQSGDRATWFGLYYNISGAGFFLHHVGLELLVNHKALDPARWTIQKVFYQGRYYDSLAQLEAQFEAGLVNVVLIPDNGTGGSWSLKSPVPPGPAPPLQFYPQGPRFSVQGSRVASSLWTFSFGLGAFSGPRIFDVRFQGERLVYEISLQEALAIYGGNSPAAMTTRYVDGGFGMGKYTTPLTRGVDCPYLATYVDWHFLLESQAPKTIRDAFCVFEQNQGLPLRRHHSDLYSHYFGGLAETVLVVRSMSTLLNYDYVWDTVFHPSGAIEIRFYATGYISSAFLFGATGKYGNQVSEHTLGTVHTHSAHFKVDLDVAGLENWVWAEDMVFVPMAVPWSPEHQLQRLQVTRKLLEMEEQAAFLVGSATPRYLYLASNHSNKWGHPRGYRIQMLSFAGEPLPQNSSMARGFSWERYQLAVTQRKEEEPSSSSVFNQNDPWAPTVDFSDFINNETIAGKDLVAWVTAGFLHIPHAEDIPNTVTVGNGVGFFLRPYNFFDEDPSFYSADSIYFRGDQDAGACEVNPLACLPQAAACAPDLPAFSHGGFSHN
Protocol: (§1) VAP-1, DAO, MAO-A, MAO-B, and HRP activity and inhibition thereof was assessed by means of a continuous fluorescence assay. The Amplex Red Hydrogen Peroxide/Peroxidase Assay (ThermoFisher) was optimized for detecting amine oxidase (AO) activity. In an enzyme-coupled reaction, the H2O2 generated by AO reacts 1:1 with Amplex Red reagent to produce fluorescent product resorufin.
(§2) Assays were typically setup in black 384-well plates using automated liquid handling as follows. VAP-1/MAO assay buffer contains […] sodium phosphate, pH 7.4; DAO assay buffer contains 50 mM HEPES, pH 7.5; HRP assay buffer contains 100 mM CHES, 1 mM MgCl2, 50 mM NaCl, 0.05% BSA, pH 9.0. Inhibitors were serially diluted in DMSO and used to setup 2× mixtures with AO in the aforementioned buffer. After 30 min pre-incubation at 37° C. (VAP-1, HRP) or room temp (DAO, MAO), the reaction was initiated by adding a 2× mix of Amplex Red, HRP (coupling enzyme), and substrate (benzylamine, histamine, tyramine, benzylamine, H2O2, for VAP-1, DAO, MAO-A, MAO-B, and HR, respectively) in the same buffer. Reaction progress curve data were typically collected for 5 min using excitation/emission wavelengths of 510 nm/565 nm on FLIPR-Tetra plate readers (Molecular Devices Inc). Reaction rates were calculated from progress curve slopes typically over 60-150 sec. Dose response curves (rate vs. log inhibitor concentration) were typically fit to a 4-parameter logistic function to extract IC50 values.

Human MAO-A = biological target: T2, Human MAO-A (Homo sapiens, UniProt P21397); assay: MAO-A inhibition (Amplex Red continuous fluorescence assay)
T2 sequence (P21397 1-527): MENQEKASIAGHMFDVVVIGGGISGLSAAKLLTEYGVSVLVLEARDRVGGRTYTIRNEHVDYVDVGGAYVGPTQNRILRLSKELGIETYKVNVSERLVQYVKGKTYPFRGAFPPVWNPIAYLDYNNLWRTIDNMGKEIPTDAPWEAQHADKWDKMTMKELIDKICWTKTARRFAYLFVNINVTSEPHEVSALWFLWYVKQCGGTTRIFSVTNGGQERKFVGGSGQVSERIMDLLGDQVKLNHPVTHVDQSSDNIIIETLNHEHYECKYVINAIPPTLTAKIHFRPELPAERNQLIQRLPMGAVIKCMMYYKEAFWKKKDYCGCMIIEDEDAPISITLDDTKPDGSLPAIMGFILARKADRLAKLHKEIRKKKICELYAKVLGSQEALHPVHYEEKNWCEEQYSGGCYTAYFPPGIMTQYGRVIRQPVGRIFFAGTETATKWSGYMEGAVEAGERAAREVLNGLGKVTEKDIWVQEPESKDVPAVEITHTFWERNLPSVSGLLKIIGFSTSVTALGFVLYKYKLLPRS
Protocol: as §1, §2

Human MAO-B = biological target: T3, Human MAO-B (Homo sapiens, UniProt P27338); assay: MAO-B inhibition (Amplex Red continuous fluorescence assay)
T3 sequence (P27338 1-520): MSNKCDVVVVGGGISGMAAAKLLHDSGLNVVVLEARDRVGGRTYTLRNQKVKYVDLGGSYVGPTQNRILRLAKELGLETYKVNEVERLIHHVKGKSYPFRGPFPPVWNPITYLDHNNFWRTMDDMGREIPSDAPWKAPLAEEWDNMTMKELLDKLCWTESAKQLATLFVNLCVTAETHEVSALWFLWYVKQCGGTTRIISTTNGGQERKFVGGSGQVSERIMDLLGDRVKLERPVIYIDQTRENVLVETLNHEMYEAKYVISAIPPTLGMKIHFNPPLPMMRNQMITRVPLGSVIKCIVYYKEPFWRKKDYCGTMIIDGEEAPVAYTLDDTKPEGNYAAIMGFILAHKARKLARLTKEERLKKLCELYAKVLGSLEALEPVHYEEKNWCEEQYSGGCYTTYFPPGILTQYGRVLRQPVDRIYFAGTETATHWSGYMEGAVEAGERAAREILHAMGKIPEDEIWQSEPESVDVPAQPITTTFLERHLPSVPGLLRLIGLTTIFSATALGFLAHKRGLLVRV
Protocol: as §1, §2

Human DAO = biological target: T4, Human DAO (Homo sapiens, UniProt P19801); assay: DAO inhibition (Amplex Red continuous fluorescence assay)
T4 sequence (P19801 20-751): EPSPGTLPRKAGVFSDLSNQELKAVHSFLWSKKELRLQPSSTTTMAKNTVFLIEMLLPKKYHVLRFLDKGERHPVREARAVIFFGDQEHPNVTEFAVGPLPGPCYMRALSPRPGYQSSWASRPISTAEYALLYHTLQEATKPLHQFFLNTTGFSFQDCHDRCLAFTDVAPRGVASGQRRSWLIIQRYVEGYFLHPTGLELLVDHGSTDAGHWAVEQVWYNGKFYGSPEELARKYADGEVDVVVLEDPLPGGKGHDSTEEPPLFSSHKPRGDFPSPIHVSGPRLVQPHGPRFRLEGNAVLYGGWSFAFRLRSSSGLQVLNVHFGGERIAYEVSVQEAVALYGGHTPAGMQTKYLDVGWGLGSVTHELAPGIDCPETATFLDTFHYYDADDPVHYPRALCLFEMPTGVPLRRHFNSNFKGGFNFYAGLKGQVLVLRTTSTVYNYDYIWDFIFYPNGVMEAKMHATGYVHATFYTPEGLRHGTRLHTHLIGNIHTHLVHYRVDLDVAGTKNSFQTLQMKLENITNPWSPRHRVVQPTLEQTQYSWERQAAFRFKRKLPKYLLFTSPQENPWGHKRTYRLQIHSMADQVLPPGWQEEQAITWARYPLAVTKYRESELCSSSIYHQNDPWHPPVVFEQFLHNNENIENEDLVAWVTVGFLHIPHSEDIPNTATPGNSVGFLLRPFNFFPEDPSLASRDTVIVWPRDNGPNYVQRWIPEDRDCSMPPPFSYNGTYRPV
Protocol: as §1, §2

[1] = 30 min pre-incubation at 37° C., substrate benzylamine, read-out: Human VAP-1 IC50
[2] = 30 min pre-incubation at room temp, substrate tyramine, read-out: Human MAO-A IC50
[3] = 30 min pre-incubation at room temp, substrate benzylamine, read-out: Human MAO-B IC50
[4] = 30 min pre-incubation at room temp, substrate histamine, read-out: Human DAO IC50

| SMILES | pIC50 (Human VAP-1; [1]) | pIC50 (Human MAO-A; [2]) | pIC50 (Human MAO-B; [3]) | pIC50 (Human DAO; [4]) | pIC50 (Human VAP-1) | pIC50 (Human MAO-A) | pIC50 (Human MAO-B) | pIC50 (Human DAO) |
| --- | --- | --- | --- | --- | --- | --- | --- | --- |
| CC(C)(C)NC(=O)c1ccc(NC/C(=C\F)CN)cc1 [Compound 46, (Z)-4-((2-(aminomethyl)-3-fluoroalkyl)amino)-N-(tert-butyl)benzamide hydrochloride] | > 5.52 | < 5.00 | > 5.52 | 5.00 to 5.52 |  |  |  |  |
| NC/C(=C\F)CNC(=O)Oc1ccccc1 [Compound 47, phenyl (E)-(2-(aminomethyl)-3-fluoroalkyl)carbamate hydrochloride] |  |  |  |  | > 5.52 | > 5.52 | < 5.00 | < 5.00 |
| Cn1nccc1-c1ccc(OC/C(=C/F)CN)cc1 [Compound 48, (E)-3-fluoro-2-((4-(1-methyl-1H-pyrazol-5-yl)phenoxy)methyl)prop-2-en-1-amine hydrochloride] | > 5.52 | < 5.00 | > 5.52 | > 5.52 |  |  |  |  |
| Cn1nccc1-c1ccc(OC/C(=C\F)CN)cc1 [Compound 49, (Z)-3-fluoro-2-((4-(1-methyl-1H-pyrazol-5-yl)phenoxy)methyl)prop-2-en-1-amine hydrochloride] | > 5.52 | > 5.52 | > 5.52 | > 5.52 |  |  |  |  |
| Cn1ccc(-c2ccc(OC/C(=C/F)CN)cc2)n1 [Compound 50, (E)-3-fluoro-2-((4-(1-methyl-1H-pyrazol-3-yl)phenoxy)methyl)prop-2-en-1-amine hydrochloride] | > 5.52 | 5.00 to 5.52 | > 5.52 | > 5.52 |  |  |  |  |
| NC/C(=C\F)COc1ccc(-c2nnn[nH]2)cc1 [Compound 51, (E)-2-((4-(1H-tetrazol-5-yl)phenoxy)methyl)-3-fluoroprop-2-en-1-amine hydrochloride] | > 5.52 | < 5.00 | < 5.00 | 5.00 to 5.52 |  |  |  |  |
| NC/C(=C/F)COc1ccc(-c2nnn[nH]2)cc1 [Compound 52, (Z)-2-((4-(1H-tetrazol-5-yl)phenoxy)methyl)-3-fluoroprop-2-en-1-amine hydrochloride] | > 5.52 | < 5.00 | < 5.00 | > 5.52 |  |  |  |  |

Further lines, with some results ahead:

| pIC50 (Human VAP-1; [1]) | pIC50 (Human MAO-A; [2]) | pIC50 (Human MAO-B; [3]) | pIC50 (Human DAO; [4]) | SMILES | pIC50 (Human VAP-1) | pIC50 (Human MAO-A) | pIC50 (Human MAO-B) | pIC50 (Human DAO) |
| --- | --- | --- | --- | --- | --- | --- | --- | --- |
| > 5.52 | 5.00 to 5.52 | > 5.52 | > 5.52 | NC/C(=C\F)COc1ccc(-c2ncccn2)cc1 [Compound 37, (E)-3-fluoro-2-((4-(pyrimidin-2-yl)phenoxy)methyl)prop-2-en-1-amine hydrochloride] |  |  |  |  |
| > 5.52 | > 5.52 | > 5.52 | > 5.52 | NC/C(=C/F)COc1ccc(-c2ncccn2)cc1 [Compound 38, (Z)-3-fluoro-2-((4-(pyrimidin-2-yl)phenoxy)methyl)prop-2-en-1-amine hydrochloride] |  |  |  |  |
| > 5.52 | < 5.00 | > 5.52 | > 5.52 | Cn1cnc(-c2ccc(OC/C(=C/F)CN)cc2)c1 [Compound 39, (E)-3-fluoro-2-((4-(1-methyl-1H-imidazol-4-yl)phenoxy)methyl)prop-2-en-1-amine] |  |  |  |  |
| > 5.52 | 5.00 to 5.52 | > 5.52 | > 5.52 | NC/C(=C\F)COc1ccc(-c2cnc[nH]2)cc1 [Compound 40, (E)-2-((4-(1H-imidazol-5-yl)phenoxy)methyl)-3-fluoroprop-2-en-1-amine] |  |  |  |  |
| > 5.52 | > 5.52 | > 5.52 | < 5.00 | NC/C(=C\F)COCc1cccs1 [Compound 41, (E)-3-fluoro-2-((thiophen-2-ylmethoxy)methyl)prop-2-en-1-amine] |  |  |  |  |
| > 5.52 | > 5.52 | > 5.52 | > 5.52 | NC/C(=C\F)COc1ccc(-c2ccn[nH]2)cc1 [Compound 42, (E)-2-((4-(1H-pyrazol-5-yl)phenoxy)methyl)-3-fluoroprop-2-en-1-amine hydrochloride] |  |  |  |  |
| > 5.52 | 5.00 to 5.52 | > 5.52 | > 5.52 | NC/C(=C\F)COc1ccc(-c2ncon2)cc1 [Compound 43, (E)-2-((4-(1,2,4-oxadiazol-3-yl)phenoxy)methyl)-3-fluoroprop-2-en-1-amine hydrochloride] |  |  |  |  |
| > 5.52 | > 5.52 | > 5.52 | > 5.52 | NC/C(=C/F)COc1ccc(-c2ncon2)cc1 [Compound 44, (Z)-2-((4-(1,2,4-OXADIAZOL-3-YL)PHENOXY)METHYL)-3-FLUOROPROP-2-EN-1-AMINE HYDROCHLORIDE] |  |  |  |  |
| > 5.52 | < 5.00 | > 5.52 | < 5.00 | CC(C)(C)NC(=O)c1ccc(NC/C(=C/F)CN)cc1 [Compound 45, (E)-4-((2-(aminomethyl)-3-fluoroalkyl)amino)-n-(tert-butyl)benzamide hydrochloride] |  |  |  |  |
